Laboratory results as given in patent US12390467B2, “Necroptosis inducers or autophagy inhibitors or a combination thereof” (The University of Toledo, priority 2018, dated 2025).

Tests used:
Format in all cases: cell-based
[1] = tested on: MDA-MB231 (TNBC cell line); test: MTT cell viability assay, MDA-MB231; settings: Homo sapiens, MDA-MB-231, 72 h, read-out: IC50 ± SD, MDA-MB231
Description: (§1) The following cancer and non-cancer cell lines were used in the initial cytotoxicity screening of the TPH104 compounds: triple negative breast cancer (TNBC): MDA-MB468, MDA-MB 231, and BT-20; non-TNBC: MCF-7 and ZR-75-1; ovarian: Ov2008; prostate: DU145; colon: HCT-116, S1, and LOVO; lung: H460; normal kidney: HEK-293; normal breast: HMEC; and normal colon: CRL-1459. All cells were cultured in Dulbecco's modified Eagle medium (DMEM), supplemented with 10% fetal bovine serum (FBS), and 1% penicillin/streptomycin (P/S). Cells were allowed to grow as adherent monolayers in T25 flasks in a humidified incubator with 5% CO2 at 37° C. for a period of 24 h, unless otherwise specified for certain experiments.
(§2) The MTT assay was used to determine the cytotoxicity of all of the compounds. Briefly, in a 96-well flat-bottom cell culture plate, the cells were seeded at a density between 3-5×10^3 cells/well (180 μl in each well) and incubated for 24 h (a hemocytometer was used for cell counting). The next day, the cells were incubated with different concentrations of the nine compounds (0, 0.1, 0.3, 1, 3, 10, 30, and 100 μM) for 72 h. After 72 h, 20 μl of 5 mg/ml of 3-(4,5-dimethylthiazol-2-yl)-2,5-diphenyltetrazolium bromide (MTT) was added to the plate and incubated with the cells for 3 h at 37° C. In this experiment, the living cells will reduce the soluble MTT dye to non-soluble purple formazan crystals. Following incubation, the media containing MTT removed via suction and 100 μL of 100% dimethyl sulfoxide (DMSO) was added to dissolve the formazan crystals. Subsequently, the plate was shaken for 2 minutes and the absorbance was measured at a wavelength of 570 nm using a SpectraMax iD3 Multi-Mode Microplate Reader (Molecular Devices, Sunnyvale, CA). The IC50 values of each compound were calculated and used to determine the selectivity ratio (IC50 in normal cells/IC50 in cancer cells) of each compound as previously described. Based on the results obtained from these experiments, the compound TPH104, which had the lowest IC50 value, was selected for further experiments.

[2] = tested on: MDA-MB468 (TNBC cell line); test: MTT cell viability assay, MDA-MB468; settings: Homo sapiens, MDA-MB-468, 72 h, read-out: IC50 ± SD, MDA-MB468
Description: as §1, §2

[3] = tested on: ZR-75-1 (non-TNBC cell line); test: MTT cell viability assay, ZR-75-1; settings: Homo sapiens, ZR-75-1, 72 h, read-out: IC50 ± SD, ZR-75-1
Description: as §1, §2

[4] = tested on: MCF-7 (non-TNBC cell line); test: MTT cell viability assay, MCF-7; settings: Homo sapiens, MCF7, 72 h, read-out: IC50 ± SD, MCF-7
Description: as §1, §2

[5] = tested on: normal human mammary epithelial cells (HMEC); test: MTT cell viability assay, HMEC; settings: Homo sapiens, HMEC; MTT, 72 h; Normal; read-out: IC50 ± SD, HMEC
Description: as §1, §2

TNBC cell lines = test: Cytotoxicity screening (MTT), TNBC cell lines overall; settings: classification of Table 1 cytotoxicity data
Description: To this end, several commercial databases were searched, and 17 similar molecules from the VitasM database were retrieved with considerable structural diversity in terms of the substitution on the aryl ring A attached to the thienopyrimidine scaffold and aryl ring B attached to hydrazino moiety. Further, the biological evaluation of the 17 molecules sheds light on the structural features deemed important for the selective cytotoxicity shown by this class of molecules. With this understanding, the 17 molecules were subjected to a screening protocol comprising of two TNBC, two non-TNBC, and one normal cell lines.
as §1, §2

[6] = molecular target: T1, P-gp (ABCB1), DU145TXR prostate cancer cells (Homo sapiens, UniProt P08183); test: Calcein AM assay for P-gp modulation; settings: concentration dependent
T1 construct: endogenous in cells; host or cells: DU145TXR prostate cancer cells
Description: Ability of P-gp to efflux Calcein AM is used to identify the molecules which interfere with P-gp transporter activity. About 10000 cells of DU145TXR prostate cancer cells were seeded in each well in 96 well plates and allowed to grow until confluency for 4-5 days. Then media was replaced with phenol red free RPMI media and cells were treated with indicated concentrations of TPH104s and 1 μg/mL of Calcein AM. Fluorescence measured after 60 minutes with excitation at 485/20 nm and at emission 535/20 nm using the BioTek Cytation 5 imaging multi-mode reader (Bio-Tek, Winooski, VT). DMSO (0.5% v/v) was used as the vehicle, and 15 μM of Pgp inhibitor SMU 45 was used as a positive control. (n=6 in each trial).

[7] = molecular target: T2, BCRP (ABCG2), MCF-7 M100 breast cancer cells (Homo sapiens, UniProt Q9UNQ0); test: Hoechst 33342 assay for BCRP modulation; settings: concentration dependent
T2 construct: endogenous in cells; host or cells: MCF-7 M100 breast cancer cells
Description: Ability of BCRP to efflux nuclear stain Hoechst 33342 was used to identify the molecules which interfere with BCRP transporter activity. About 14000 cells of MCF-7 M100 breast cancer cells were seeded in each well in 96 well plates and allowed to grow until confluency for 4-5 days. Then media was replaced with phenol red free RPMI media and cells were treated with indicated concentrations of TPH104s and 5 μg/mL of Hoechst 33342. Fluorescence measured after 60 minutes with excitation at 361/20 nm and at emission 497/20 nm using the BioTek Cytation 5 imaging multi-mode reader (Bio-Tek, Winooski, VT). DMSO (0.5% v/v) was used as the vehicle, and 0.5 μM of BCRP inhibitor, Ko143 was used as a positive control and 15 μM of P-gp modulator, verapamil was used as negative control.

T2 sequence (Q9UNQ0 whole entry): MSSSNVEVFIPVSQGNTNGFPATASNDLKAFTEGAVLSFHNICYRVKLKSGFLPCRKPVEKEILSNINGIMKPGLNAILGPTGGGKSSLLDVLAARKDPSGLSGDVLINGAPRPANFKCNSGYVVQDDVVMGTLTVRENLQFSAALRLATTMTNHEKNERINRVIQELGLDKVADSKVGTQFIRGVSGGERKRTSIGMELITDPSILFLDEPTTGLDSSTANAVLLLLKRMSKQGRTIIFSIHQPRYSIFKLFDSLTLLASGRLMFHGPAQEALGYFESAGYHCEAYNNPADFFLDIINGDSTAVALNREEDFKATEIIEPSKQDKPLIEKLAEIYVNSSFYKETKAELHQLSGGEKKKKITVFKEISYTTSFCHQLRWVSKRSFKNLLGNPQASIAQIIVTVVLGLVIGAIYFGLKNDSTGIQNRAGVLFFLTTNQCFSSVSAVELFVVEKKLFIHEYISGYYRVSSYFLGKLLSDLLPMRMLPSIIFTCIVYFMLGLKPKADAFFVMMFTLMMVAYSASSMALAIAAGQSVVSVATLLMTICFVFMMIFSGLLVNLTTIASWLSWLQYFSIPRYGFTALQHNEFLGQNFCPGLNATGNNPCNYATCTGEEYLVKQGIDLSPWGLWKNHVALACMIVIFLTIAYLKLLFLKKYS
T1 sequence (P08183 whole entry): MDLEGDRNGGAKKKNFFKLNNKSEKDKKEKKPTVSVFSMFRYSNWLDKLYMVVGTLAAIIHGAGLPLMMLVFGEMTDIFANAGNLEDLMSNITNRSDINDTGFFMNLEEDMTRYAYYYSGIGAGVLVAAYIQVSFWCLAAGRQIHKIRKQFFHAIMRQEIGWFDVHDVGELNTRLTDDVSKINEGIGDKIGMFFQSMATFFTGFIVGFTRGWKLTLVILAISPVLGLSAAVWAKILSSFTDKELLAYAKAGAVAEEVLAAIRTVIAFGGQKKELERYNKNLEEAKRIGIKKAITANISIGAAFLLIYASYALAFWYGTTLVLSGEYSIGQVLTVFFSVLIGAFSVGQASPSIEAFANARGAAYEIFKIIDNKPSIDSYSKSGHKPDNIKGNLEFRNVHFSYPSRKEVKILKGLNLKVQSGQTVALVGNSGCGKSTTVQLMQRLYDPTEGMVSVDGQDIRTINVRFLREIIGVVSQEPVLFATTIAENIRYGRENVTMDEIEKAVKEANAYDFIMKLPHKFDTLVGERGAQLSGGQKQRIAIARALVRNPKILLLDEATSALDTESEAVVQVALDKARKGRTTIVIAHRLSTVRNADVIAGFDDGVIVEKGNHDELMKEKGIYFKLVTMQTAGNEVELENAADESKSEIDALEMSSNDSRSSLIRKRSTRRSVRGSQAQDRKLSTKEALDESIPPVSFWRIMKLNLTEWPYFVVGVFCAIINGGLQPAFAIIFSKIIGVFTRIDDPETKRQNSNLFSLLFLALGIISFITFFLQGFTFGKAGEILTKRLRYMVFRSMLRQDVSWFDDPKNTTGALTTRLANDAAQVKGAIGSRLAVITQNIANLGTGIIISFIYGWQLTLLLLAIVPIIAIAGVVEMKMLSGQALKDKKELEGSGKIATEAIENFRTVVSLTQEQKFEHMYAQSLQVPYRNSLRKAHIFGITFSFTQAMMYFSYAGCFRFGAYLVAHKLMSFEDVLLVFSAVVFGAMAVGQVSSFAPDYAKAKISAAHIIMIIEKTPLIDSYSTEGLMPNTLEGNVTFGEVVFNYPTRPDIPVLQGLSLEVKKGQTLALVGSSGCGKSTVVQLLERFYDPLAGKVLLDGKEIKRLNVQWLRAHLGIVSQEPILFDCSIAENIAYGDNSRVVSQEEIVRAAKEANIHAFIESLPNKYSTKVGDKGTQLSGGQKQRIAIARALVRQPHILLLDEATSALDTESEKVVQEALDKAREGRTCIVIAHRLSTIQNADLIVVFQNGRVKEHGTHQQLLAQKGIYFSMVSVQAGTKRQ

- IC50 [1]: 440 ± 210 nM
- IC50 [2]: 290 ± 10 nM
- IC50 [4]: 2730 ± 1020 nM
- efflux function of ABCB1 [6]: blocking the efflux function
- efflux function of ABCG2 [7]: blocking the efflux function
SMILES: Cc1ccc(-c2csc3ncnc(N/N=C/c4ccc(Br)cc4O)c23)cc1 [TPH104m]
- IC50 [3]: > 100000 nM
- IC50 [5]: > 100000 nM
- potency compared to TPH104 (TNBC cell lines): comparable potency to that of TPH104
